Values after ≈ are worked out from the molar mass of the structure shown.
Key:
[1] = molecular target: T1, Chromatin remodeling regulator CECR2 (Homo sapiens, UniProt Q9BXF3); experiment: Inhibition of recombinant human N-terminal His6-FLAG-tagged CECR2 expressed in Rosetta2 (DE3) pLysS cells after 60 mins by TR-FRET assay; type: cell-based
[2] = molecular target: T2, Bromodomain-containing protein 4 (Homo sapiens, UniProt O60885); experiment: Inhibition of recombinant human N-terminal His6-FLAG-tagged BRD4 bromodomain 1 expressed in Rosetta2 (DE3) pLysS cells after 60 mins by TR-FRET assay; type: cell-based
[3] = molecular target: T3, Bromodomain-containing protein 9 (Homo sapiens, UniProt Q9H8M2); experiment: Inhibition of recombinant human N-terminal His6-FLAG-tagged BRD9 (unknown origin) expressed in Rosetta2 (DE3) pLysS cells after 60 mins by TR-FRET assay; type: cell-based
T3 sequence (Q9H8M2 whole entry): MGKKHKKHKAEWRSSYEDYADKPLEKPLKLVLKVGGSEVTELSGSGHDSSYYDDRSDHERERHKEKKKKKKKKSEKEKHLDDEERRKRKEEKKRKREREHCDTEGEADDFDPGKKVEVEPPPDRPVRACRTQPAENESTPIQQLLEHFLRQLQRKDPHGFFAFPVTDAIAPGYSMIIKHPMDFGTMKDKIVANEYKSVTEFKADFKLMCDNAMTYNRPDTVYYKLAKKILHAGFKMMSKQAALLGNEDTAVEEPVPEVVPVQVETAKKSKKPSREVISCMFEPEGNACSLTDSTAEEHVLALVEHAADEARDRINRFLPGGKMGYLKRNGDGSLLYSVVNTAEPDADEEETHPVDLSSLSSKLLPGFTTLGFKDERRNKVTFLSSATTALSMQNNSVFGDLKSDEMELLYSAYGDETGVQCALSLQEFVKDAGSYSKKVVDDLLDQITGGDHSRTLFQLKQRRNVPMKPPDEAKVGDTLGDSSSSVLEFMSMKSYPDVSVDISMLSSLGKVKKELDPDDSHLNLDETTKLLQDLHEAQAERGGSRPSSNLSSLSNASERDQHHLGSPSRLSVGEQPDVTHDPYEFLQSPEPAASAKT

[4] = molecular target: T2, Bromodomain-containing protein 4; experiment: Inhibition of recombinant human N-terminal His6-FLAG-tagged BRD4 bromodomain 2 (unknown origin) expressed in Rosetta2 (DE3) pLysS cells after 60 mins by TR-FRET assay; type: cell-based
[5] = molecular target: T4, Transcription initiation factor TFIID subunit 1 (Homo sapiens, UniProt P21675); experiment: Inhibition of recombinant human N-terminal His6-FLAG-tagged TAF1 bromodomain 2 (unknown origin) expressed in Rosetta2 (DE3) pLysS cells after 60 mins by TR-FRET assay; type: cell-based
T4 sequence (P21675 whole entry, the tested form may be a part): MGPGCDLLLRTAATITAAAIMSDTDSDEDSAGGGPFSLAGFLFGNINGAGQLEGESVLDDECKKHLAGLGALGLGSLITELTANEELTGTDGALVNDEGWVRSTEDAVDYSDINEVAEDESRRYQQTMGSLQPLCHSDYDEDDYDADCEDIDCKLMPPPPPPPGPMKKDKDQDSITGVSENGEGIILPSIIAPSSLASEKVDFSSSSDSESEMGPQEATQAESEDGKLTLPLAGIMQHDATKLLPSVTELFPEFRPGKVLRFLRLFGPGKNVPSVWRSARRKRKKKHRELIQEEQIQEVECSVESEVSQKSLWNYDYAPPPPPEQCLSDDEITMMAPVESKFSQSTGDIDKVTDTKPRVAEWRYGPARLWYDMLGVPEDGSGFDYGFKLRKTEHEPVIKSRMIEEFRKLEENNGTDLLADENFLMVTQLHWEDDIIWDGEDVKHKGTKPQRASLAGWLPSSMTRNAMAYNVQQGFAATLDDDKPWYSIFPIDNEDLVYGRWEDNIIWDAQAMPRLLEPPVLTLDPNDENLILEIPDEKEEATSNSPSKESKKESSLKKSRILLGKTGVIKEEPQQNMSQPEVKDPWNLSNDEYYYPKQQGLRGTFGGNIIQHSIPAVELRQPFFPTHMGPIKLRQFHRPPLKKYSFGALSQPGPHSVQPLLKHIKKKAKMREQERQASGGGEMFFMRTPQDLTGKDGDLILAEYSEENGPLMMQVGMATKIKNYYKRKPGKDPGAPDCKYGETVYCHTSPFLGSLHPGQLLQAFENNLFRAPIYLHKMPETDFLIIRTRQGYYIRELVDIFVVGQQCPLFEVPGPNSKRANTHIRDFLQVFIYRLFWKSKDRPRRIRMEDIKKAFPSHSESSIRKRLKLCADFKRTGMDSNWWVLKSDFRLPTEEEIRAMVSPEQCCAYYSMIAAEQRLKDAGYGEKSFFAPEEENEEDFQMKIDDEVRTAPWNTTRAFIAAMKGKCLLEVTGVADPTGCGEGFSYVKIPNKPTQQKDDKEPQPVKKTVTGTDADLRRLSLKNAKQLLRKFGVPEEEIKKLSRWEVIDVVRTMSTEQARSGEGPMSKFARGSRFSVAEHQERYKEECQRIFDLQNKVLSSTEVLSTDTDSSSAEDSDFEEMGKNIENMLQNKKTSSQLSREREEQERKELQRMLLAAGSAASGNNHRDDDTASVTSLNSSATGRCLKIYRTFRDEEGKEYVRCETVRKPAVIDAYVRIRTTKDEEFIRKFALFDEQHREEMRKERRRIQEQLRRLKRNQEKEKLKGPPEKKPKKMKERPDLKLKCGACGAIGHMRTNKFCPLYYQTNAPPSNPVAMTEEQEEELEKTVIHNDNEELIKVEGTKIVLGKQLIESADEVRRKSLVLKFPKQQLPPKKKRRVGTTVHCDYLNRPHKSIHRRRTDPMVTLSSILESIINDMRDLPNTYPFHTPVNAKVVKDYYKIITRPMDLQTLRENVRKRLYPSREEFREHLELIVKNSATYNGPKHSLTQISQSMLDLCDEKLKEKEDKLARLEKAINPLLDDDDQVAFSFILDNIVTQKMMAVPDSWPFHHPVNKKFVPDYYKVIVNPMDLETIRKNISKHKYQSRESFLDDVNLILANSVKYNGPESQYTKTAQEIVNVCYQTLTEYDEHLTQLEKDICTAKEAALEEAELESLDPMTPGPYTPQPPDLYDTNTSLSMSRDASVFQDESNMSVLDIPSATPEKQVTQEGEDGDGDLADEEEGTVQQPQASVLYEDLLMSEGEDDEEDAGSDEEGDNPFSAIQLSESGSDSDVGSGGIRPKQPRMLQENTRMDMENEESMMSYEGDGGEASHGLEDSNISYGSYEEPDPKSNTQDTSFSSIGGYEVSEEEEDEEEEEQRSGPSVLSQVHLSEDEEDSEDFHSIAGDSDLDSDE

[6] = molecular target: T1, Chromatin remodeling regulator CECR2; experiment: Binding affinity to ZsGreen fused-CECR2 bromodomain (M404 to H515 residues) (unknown origin) expressed in human U2OS-C433 cells co expressing (MDPKKKRKVDPKKRKVDPKKKRKV) assessed as induction of protein bromodomain localization from chromatin by measuring formation of large nuclear puncta by fluorescence based assay; type: cell-based
[7] = molecular target: Transcription initiation factor TFIID subunit 1-like (Homo sapiens, UniProt Q8IZX4); experiment: Binding affinity to human DNA-tagged TAF1L bromodomain 2 (1523 to 1654 residues) expressed in bacterial expression system by BROMOscan assay
[8] = molecular target: T4, Transcription initiation factor TFIID subunit 1; experiment: Binding affinity to human DNA-tagged TAF1 bromodomain 2 (1521 to 1656 residues) expressed in bacterial expression system by BROMOscan assay
[9] = Kinetic solubility of the compound; type: physicochemical; conditions: read-out: Kinetic_solubility
[10] = molecular target: T3, Bromodomain-containing protein 9; experiment: Binding affinity to human DNA-tagged BRD9 isoform 1 (130 to 259 residues) expressed in bacterial expression system by BROMOscan assay
[11] = molecular target: T5, Bromodomain-containing protein 7 (Homo sapiens, UniProt Q9NPI1); experiment: Binding affinity to human DNA-tagged BRD7 (125 to 254 residues) expressed in mammalian expression system by BROMOscan assay
T5 sequence (Q9NPI1 whole entry): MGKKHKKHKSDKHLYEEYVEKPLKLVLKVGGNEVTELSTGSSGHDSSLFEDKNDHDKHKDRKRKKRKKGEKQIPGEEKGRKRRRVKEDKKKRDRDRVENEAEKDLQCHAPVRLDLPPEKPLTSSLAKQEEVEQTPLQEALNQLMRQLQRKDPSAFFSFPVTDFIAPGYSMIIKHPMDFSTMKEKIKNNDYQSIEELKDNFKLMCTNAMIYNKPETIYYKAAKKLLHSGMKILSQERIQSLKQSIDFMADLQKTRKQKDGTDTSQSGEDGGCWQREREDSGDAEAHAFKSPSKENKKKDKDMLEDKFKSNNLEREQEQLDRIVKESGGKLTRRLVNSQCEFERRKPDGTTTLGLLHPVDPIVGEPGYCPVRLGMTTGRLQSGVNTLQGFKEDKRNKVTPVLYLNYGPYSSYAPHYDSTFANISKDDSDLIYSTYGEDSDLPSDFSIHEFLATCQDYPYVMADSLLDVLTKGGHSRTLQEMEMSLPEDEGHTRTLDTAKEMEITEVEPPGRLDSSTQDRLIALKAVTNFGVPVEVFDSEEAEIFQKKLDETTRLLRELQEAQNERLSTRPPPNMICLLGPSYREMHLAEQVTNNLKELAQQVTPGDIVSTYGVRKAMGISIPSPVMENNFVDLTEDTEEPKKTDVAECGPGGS

T1 sequence (Q9BXF3 whole entry): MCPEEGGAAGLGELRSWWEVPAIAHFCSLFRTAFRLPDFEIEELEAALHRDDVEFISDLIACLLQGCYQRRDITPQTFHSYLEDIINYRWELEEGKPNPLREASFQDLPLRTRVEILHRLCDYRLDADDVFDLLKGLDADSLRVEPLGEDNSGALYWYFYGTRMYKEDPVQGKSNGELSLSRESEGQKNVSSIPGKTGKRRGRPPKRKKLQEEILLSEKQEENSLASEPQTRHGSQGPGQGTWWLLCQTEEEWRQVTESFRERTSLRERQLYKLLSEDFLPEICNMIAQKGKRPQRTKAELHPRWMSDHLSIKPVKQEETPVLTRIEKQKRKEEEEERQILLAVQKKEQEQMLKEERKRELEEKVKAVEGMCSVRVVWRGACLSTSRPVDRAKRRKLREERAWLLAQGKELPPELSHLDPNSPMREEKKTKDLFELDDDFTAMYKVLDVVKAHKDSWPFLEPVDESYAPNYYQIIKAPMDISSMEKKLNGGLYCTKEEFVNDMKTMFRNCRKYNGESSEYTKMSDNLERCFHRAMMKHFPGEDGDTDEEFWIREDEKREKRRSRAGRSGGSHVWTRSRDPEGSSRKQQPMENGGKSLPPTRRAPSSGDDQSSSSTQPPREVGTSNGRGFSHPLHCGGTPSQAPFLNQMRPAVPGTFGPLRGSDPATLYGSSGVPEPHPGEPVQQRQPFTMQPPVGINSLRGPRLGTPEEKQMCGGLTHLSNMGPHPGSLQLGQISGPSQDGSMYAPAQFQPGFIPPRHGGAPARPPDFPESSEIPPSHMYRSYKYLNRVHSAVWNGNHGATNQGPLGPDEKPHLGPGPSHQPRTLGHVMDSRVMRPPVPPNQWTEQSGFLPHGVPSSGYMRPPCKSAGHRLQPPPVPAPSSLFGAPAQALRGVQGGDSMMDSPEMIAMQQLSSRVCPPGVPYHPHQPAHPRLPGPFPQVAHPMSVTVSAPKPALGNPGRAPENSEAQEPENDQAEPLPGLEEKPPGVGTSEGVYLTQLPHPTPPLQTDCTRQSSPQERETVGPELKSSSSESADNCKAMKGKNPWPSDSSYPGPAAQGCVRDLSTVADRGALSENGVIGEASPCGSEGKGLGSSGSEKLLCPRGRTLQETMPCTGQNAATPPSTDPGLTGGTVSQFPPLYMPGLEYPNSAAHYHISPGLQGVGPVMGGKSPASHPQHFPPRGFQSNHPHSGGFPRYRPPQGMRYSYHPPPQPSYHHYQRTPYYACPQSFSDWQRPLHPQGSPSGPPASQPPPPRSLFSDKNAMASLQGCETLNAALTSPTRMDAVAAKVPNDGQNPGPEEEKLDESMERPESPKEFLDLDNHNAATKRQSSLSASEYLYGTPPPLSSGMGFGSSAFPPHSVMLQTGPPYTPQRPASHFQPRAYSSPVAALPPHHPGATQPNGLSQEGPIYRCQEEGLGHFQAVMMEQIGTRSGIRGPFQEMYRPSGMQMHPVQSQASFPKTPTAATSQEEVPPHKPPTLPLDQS

C=CCn1cc(C(=O)N(C)C2CCN([C@H](C)c3ccccc3)CC2)c2cc(C)[nH]c2c1=O gave an IC50 [1] of 200 nM, an IC50 [2] of over 20000 nM and an IC50 [3] of 3500 nM. It also gave an IC50 [4] of over 20000 nM and an IC50 [5] of 16500 nM.

In the case of C=CCn1cc(C(=O)N(C)C2CCN(c3cc(OC)nc(C)n3)CC2)c2cc[nH]c2c1=O, the IC50 [1] is reported as 71 nM, the IC50 [2] is reported as over 20000 nM and the IC50 [3] is reported as 5800 nM. The IC50 [5] was 2700 nM.

Molecule C=CCn1cc(C(=O)N(C)C2CCN(c3cc(C(C)(C)C)ncn3)CC2)c2cc[nH]c2c1=O has an IC50 [1] of 55 nM, an IC50 [2] of over 20000 nM and an IC50 [3] of 5700 nM. The IC50 [5] was 2800 nM.

Work on CN1CCC(NC(=O)c2cn(C)c(=O)c3[nH]ccc23)CC1 yielded an IC50 [1] of 1100 nM, an IC50 [2] of over 20000 nM and an IC50 [3] of 2400 nM. For the same molecule, the IC50 [4] was over 20000 nM and the IC50 [5] was 130 nM.

Work on C=CCn1cc(C(=O)N(C)C2CCN(C(C)c3ccccc3)CC2)c2cc[nH]c2c1=O (racemic) yielded an IC50 [1] of 500 nM, an IC50 [2] of over 20000 nM and an IC50 [3] of over 20000 nM. For the same molecule, the IC50 [4] was over 20000 nM and the IC50 [5] was 16100 nM.

Work on C=CCn1cc(C(=O)N(C)C2CCN(c3cc(-c4ccccc4OC)ncn3)CC2)c2cc[nH]c2c1=O yielded an IC50 [1] of 45 nM, an IC50 [2] of over 20000 nM and an IC50 [3] of 2600 nM. The IC50 [5] was 2600 nM.

With CC(C)N1CCC(N(C)C(=O)c2cn(C)c(=O)c3[nH]ccc23)CC1 the IC50 [1] was 500 nM, the IC50 [2] was over 20000 nM and the IC50 [3] was 17800 nM. It also gave an IC50 [4] of 19200 nM and an IC50 [5] of 8400 nM.

Work on C=CCn1cc(C(=O)N(C)C2CCN(c3cc(C4CC4)ncn3)CC2)c2cc[nH]c2c1=O yielded an IC50 [1] of 83 nM, an IC50 [2] of over 20000 nM and an IC50 [3] of 6100 nM. For the same molecule, the IC50 [5] was 1800 nM.

C=CCn1cc(C(=O)N(C)C2CCN(c3cc(C)nc(C)n3)CC2)c2cc[nH]c2c1=O gave an IC50 [1] of 93 nM, an IC50 [2] of over 20000 nM and an IC50 [3] of 7600 nM. It also gave an IC50 [5] of 5100 nM.

C=CCn1cc(C(=O)N(C)C2CCN(c3cc(C4CC4)nc(C)n3)CC2)c2cc[nH]c2c1=O gave an IC50 [1] of 52 nM, an IC50 [2] of over 20000 nM and an IC50 [3] of 3500 nM. The IC50 [5] was 3300 nM.

With C=CCn1cc(C(=O)N(C)C2CCN(c3cc(-c4ccccc4F)ncn3)CC2)c2cc[nH]c2c1=O the IC50 [1] was 44 nM, the IC50 [2] was over 20000 nM and the IC50 [3] was 1500 nM. It also gave an IC50 [5] of 2500 nM.

In the case of C=CCn1cc(C(=O)N(C)C2CCN(c3cc(-c4ccccc4C)ncn3)CC2)c2cc[nH]c2c1=O, the IC50 [1] is reported as 46 nM, the IC50 [2] is reported as over 20000 nM and the IC50 [3] is reported as 1700 nM. For the same molecule, the IC50 [5] was 2400 nM.

C=CCn1cc(C(=O)N(C)C2CCN(c3cc(C(F)(F)F)ncn3)CC2)c2cc[nH]c2c1=O gave an IC50 [1] of 200 nM, an IC50 [2] of over 20000 nM and an IC50 [3] of 11400 nM. For the same molecule, the IC50 [5] was 3400 nM.

In the case of CC(c1ccccc1)N1CCC(N(C)C(=O)c2cn(C)c(=O)c3[nH]ccc23)CC1 (racemic), the IC50 [1] is reported as 330 nM, the IC50 [2] is reported as over 20000 nM and the IC50 [3] is reported as 11000 nM. The IC50 [4] was 6100 nM and the IC50 [5] was 3600 nM.

With C=CCn1cc(C(=O)N(C)C2CCN(c3cc(-c4cccc(OC)c4)ncn3)CC2)c2cc[nH]c2c1=O the IC50 [1] was 16 nM, the EC50 [6] was 370 nM and the Kd [7] was 2400 nM. It also gave an IC50 [2] of over 20000 nM, an IC50 [3] of 1600 nM and a Kd [8] of 620 nM. The IC50 [5] was 1400 nM, the solubility kinetic [9] was 122 µM (≈ 60.8 µg/mL) and the Kd [10] was 2000 nM. For the same molecule, the Kd [11] was 1100 nM.

C=CCn1cc(C(=O)N(C)C2CCN([C@@H](C)c3ccccc3)CC2)c2cc(C)[nH]c2c1=O gave an IC50 [1] of 190 nM, an IC50 [2] of over 20000 nM and an IC50 [3] of 4400 nM. The IC50 [4] was over 20000 nM and the IC50 [5] was 11900 nM.

For CN1CCC(N(C)C(=O)c2cn(C)c(=O)c3[nH]ccc23)CC1, the IC50 [1] was 780 nM, the IC50 [2] was over 20000 nM and the IC50 [3] was over 20000 nM. It also gave an IC50 [4] of 17200 nM and an IC50 [5] of 6100 nM.

In the case of C=CCn1cc(C(=O)N(C)C2CCN(c3cc(-n4cccn4)ncn3)CC2)c2cc[nH]c2c1=O, the IC50 [1] is reported as 59 nM, the IC50 [2] is reported as over 20000 nM and the IC50 [3] is reported as 6900 nM. The IC50 [5] was 3400 nM.

Work on C=CCn1cc(C(=O)N(C)C2CCN(c3ccncn3)CC2)c2cc[nH]c2c1=O yielded an IC50 [1] of 240 nM, an IC50 [2] of over 20000 nM and an IC50 [3] of 5000 nM. It also gave an IC50 [5] of 2100 nM.

In the case of C=CCn1cc(C(=O)N(C)C2CCN(c3cc(-c4ccco4)ncn3)CC2)c2cc[nH]c2c1=O, the IC50 [1] is reported as 45 nM, the IC50 [2] is reported as over 20000 nM and the IC50 [3] is reported as 3300 nM. The IC50 [5] was 2500 nM.

With C=CCn1cc(C(=O)N(C)C2CCN(c3cc(OC)ncn3)CC2)c2cc[nH]c2c1=O the IC50 [1] was 130 nM, the IC50 [2] was over 20000 nM and the IC50 [3] was 8500 nM. It also gave an IC50 [5] of 2800 nM.

— ChEMBL document CHEMBL4052791, “GNE-886: A Potent and Selective Inhibitor of the Cat Eye Syndrome Chromosome Region Candidate 2 Bromodomain (CECR2)” (ACS Med Chem Lett, 2017)
